Columns and labels:
[1] = et al., cited from earlier work; for thermodynamic stability logK: Caravan, 1999
[2] = MRI imaging and relaxivity measurements at 7.0 T; format: physicochemical
Description: The T1-weighted MR images of samples in 0.5 mL microfuge tubes were collected using Agilent®/Varian™ 7.0 T ([…], 5 cm diameter volume coil) VNMRj's spin-echo sequence (SEMS) sequence. For imaging, the following parameters were used: TR=200 ms; effective echo time (TE)=11.5 ms; FOV 45×45 mm^2, data matrix=256×256, averaging=2, slice=1 mm, steady-state scans=5, single slice. The T1-maps of the samples at […] was determined from a series of multi-TR (0.005 s to 10 s) saturation-recovery spin-echo sequence (SEMS with minimum TE (11.5 ms); FOV 45×45 mm^2; matrix=128×128; averaging=5, steady state scans=5), fitted and calculated using the ImageJ software. All the fits for T1 values used to calculate the longitudinal relaxivity, r1, had fitting coefficients, R^2≧0.99. Three trials were performed. […] Such changes are well known that T1 relaxivity typically decreases with increasing field strength (Caravan, et al., 1999).

[3] = 20 MHz, 39° C.; cited from earlier work
[4] = Relaxivity measurements (T1 relaxivity, Maran Ultra relaxometer); format: physicochemical; settings: 20 MHz, 25° C., Millipore water
Description: The T1 values were recorded at […], 25° C. by using a Maran Ultra relaxometer (Oxford Instruments, UK). Longitudinal relaxation times were measured by using the inversion-recovery pulse sequence (180°-t-90°). The T1 relaxivities were determined by the linear regression analysis of the water proton relaxation rates in solutions ranging in concentration from 0.005 to 12 mM, in Millipore water in triplicate. At 20 MHz, 25° C., the relaxivity of Gd^3+-L was calculated to be 103.5±15 mM^−1 s^−1. Thus, each Gd in the complex accounts for relaxivity of 17.25 mM^−1 s^−1, while under the same conditions, the relaxivity of Gd(DOTA) complex is 3.5 mM^−1 s^−1. The relaxivity value of Gd^3+-L is approximately 400% higher than that of Gd(DOTA). This may be attributed to its higher molecular weight (larger size) and consequently longer rotational correlation time (tR). At ambient conditions (37° C.), the relaxivity value of Gd^3+-L remains unchanged. The measurement of the relaxivity value of Gd^3+-L in rat serum at 25° C. gives an enhanced relaxivity value of 145.5±9.2 mM^−1 s^−1.

For `O=C([O-])CN1CCN(CC(=O)[O-])CCN(CC(=O)[O-])CC1.[Ga+3]` [Ga-NOTA], the “thermodynamic stability logK” value [1] is given as 31.0.
In the case of `O=C([O-])CN(CCN(CC(=O)[O-])CC(=O)O)CCN(CC(=O)[O-])CC(=O)O.[Gd+3]` [Gd-DTPA], the “Log K compared with that of Gd-NOTA complex” value ([1]; Reichert, 1996) is listed as “about eight orders of magnitude higher”.
In the case of `O=C([O-])CN1CCN(CC(=O)[O-])CCN(CC(=O)[O-])CC1.[Gd+3]` [Gd-NOTA], the “thermodynamic stability logK” value [1] is listed as 14.3.
With `CNC[C@H](O)[C@@H](O)[C@H](O)[C@H](O)CO.CNC[C@H](O)[C@@H](O)[C@H](O)[C@H](O)CO.O=C([O-])CN(CCN(CC(=O)[O-])CC(=O)O)CCN(CC(=O)[O-])CC(=O)O.[Gd+3]` [magnevist] the “r1 (longitudinal relaxivity) of the comparator” value [2] was 4.1 mM^−1 S^1.
For Gadomer-17, the ionic relaxivity [3] is listed as 17.3 mM⁻¹ s⁻¹.
For “gadolinium-1,4,7,10-tetrakis(carboxymethyl) cyclododecane [Gd(DOTA)]”, the “thermodynamic stability logK” value [1] is given as 24.7 and the relaxivity [4] is given as 3.5 mM⁻¹ s⁻¹.
